Measurements from the kinase profiling compilation of Christmann-Franck et al. (2016).
Each block holds one compound with its values, some of them ahead of it.

How the values were obtained:
Assay in all cases: KINOMEscan competition binding
Details in all cases: compound 10.0 µM
[1] = biological target: TGFBR1 (human) (UniProt P36897)
[2] = test system: EGFR (human), P00533 [L858R]
[3] = biological target: IKBKE (human) (UniProt Q14164)
[4] = biological target: JAK2 JH1 catalytic (human) (UniProt O60674)
[5] = biological target: ZAP70 (human) (UniProt P43403)
[6] = test system: ABL1 (human), P00519 [F317L]
[7] = test system: ABL1 (human), P00519 [Y253F]
[8] = biological target: ANKK1 (human) (UniProt Q8NFD2)
[9] = biological target: BRSK1 (human) (UniProt Q8TDC3)
Sequence of BRSK1 (human) (Q8TDC3 whole entry, looked up): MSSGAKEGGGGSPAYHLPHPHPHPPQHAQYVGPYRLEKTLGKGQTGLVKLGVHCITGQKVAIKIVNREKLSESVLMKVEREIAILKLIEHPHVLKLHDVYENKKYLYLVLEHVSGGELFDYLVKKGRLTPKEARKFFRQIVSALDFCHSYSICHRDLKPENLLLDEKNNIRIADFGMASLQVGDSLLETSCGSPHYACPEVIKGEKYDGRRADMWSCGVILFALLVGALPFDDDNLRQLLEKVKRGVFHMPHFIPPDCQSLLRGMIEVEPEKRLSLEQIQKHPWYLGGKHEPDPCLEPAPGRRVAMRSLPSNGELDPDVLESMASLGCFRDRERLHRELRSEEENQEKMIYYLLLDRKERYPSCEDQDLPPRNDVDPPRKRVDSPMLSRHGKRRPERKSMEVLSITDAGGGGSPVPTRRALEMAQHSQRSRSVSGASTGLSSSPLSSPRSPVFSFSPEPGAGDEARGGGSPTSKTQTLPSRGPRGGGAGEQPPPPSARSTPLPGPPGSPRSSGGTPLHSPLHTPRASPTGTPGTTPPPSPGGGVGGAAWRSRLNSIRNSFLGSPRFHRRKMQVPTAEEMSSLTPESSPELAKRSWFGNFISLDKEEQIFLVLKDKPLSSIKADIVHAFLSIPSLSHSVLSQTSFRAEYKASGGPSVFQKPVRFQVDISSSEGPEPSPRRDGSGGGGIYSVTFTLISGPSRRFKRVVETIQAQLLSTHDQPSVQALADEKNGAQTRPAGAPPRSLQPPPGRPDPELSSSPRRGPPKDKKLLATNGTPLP

[10] = biological target: BTK (human) (UniProt Q06187)
[11] = biological target: CAMK1G (human) (UniProt Q96NX5)
[12] = biological target: CDC42BPA (human) (UniProt Q5VT25)
[13] = biological target: CDK11B (human) (UniProt P21127)
[14] = biological target: CSF1R (human) (UniProt P07333)
[15] = biological target: EIF2AK2 (human) (UniProt P19525)
Sequence of EIF2AK2 (human) (P19525 whole entry, looked up): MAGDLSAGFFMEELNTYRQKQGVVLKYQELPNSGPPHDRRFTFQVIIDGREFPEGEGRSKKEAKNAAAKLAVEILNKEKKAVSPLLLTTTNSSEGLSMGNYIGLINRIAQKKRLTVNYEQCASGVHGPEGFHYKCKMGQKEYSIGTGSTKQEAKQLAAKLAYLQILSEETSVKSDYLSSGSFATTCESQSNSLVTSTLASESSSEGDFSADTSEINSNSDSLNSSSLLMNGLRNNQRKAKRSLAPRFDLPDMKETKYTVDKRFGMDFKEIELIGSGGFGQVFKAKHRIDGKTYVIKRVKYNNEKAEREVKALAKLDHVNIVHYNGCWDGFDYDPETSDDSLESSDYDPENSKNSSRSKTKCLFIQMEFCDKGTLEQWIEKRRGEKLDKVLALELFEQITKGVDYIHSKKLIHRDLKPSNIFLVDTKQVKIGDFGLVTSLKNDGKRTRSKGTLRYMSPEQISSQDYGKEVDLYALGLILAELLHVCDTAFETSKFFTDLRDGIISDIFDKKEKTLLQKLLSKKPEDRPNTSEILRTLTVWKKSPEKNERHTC

[16] = biological target: EPHA4 (human) (UniProt P54764)
[17] = biological target: EPHB3 (human) (UniProt P54753)
[18] = biological target: FER (human) (UniProt P16591)
[19] = test system: FGFR3 (human), P22607 [G697C]
[20] = biological target: FLT1 (human) (UniProt P17948)
[21] = biological target: FLT4 (human) (UniProt P35916)
[22] = biological target: FRK (human) (UniProt P42685)
[23] = biological target: FYN (human) (UniProt P06241)
[24] = biological target: HCK (human) (UniProt P08631)
[25] = biological target: KDR (human) (UniProt P35968)
[26] = biological target: LATS2 (human) (UniProt Q9NRM7)
[27] = biological target: MAP3K11 (human) (UniProt Q16584)
[28] = biological target: MAPK13 (human) (UniProt O15264)
[29] = biological target: MAPK6 (human) (UniProt Q16659)
[30] = biological target: MAPK9 (human) (UniProt P45984)
[31] = biological target: NEK5 (human) (UniProt Q6P3R8)
[32] = biological target: NEK6 (human) (UniProt Q9HC98)
[33] = biological target: NLK (human) (UniProt Q9UBE8)
Sequence of NLK (human) (Q9UBE8 whole entry, looked up): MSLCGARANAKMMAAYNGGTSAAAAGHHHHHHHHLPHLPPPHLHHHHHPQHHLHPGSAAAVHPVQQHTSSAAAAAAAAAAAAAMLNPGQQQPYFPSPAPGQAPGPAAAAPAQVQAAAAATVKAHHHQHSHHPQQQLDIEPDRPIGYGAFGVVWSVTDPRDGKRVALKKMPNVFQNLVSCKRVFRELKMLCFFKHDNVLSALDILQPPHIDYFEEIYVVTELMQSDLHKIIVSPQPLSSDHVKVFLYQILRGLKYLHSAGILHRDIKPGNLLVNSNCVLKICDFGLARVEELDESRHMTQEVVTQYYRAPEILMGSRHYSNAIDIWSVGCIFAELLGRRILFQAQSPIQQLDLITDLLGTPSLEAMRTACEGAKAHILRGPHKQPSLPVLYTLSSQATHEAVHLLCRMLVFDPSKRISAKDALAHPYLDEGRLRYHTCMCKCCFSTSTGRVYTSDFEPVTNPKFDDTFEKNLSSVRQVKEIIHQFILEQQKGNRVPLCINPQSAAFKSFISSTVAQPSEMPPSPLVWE

[34] = biological target: PAK6 (human) (UniProt Q9NQU5)
[35] = biological target: PAK7 (human) (UniProt Q9P286)
Sequence of PAK7 (human) (Q9P286 whole entry, looked up): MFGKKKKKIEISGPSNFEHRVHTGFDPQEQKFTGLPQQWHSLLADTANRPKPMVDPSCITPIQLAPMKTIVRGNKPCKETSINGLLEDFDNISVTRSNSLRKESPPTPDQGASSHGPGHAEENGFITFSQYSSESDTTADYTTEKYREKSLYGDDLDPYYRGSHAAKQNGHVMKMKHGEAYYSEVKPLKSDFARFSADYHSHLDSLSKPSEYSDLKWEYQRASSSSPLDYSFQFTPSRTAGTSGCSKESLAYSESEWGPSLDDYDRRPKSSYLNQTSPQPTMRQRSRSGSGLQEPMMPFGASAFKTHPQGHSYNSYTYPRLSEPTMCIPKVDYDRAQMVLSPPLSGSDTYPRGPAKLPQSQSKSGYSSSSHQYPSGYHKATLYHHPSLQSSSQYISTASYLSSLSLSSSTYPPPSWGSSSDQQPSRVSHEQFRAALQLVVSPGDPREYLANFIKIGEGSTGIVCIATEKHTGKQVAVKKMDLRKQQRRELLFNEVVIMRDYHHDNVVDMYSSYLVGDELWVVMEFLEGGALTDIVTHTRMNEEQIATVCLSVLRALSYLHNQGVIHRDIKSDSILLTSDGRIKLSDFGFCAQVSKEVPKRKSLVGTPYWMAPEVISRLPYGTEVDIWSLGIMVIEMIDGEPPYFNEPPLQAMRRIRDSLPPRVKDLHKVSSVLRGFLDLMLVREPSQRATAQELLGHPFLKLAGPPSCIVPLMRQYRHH

[36] = biological target: PHKG1 (human) (UniProt Q16816)
[37] = biological target: PKN1 (human) (UniProt Q16512)
[38] = biological target: PRKACA (human) (UniProt P17612)
[39] = biological target: PRKG2 (human) (UniProt Q13237)
[40] = biological target: PTK2B (human) (UniProt Q14289)
[41] = biological target: SRPK1 (human) (UniProt Q96SB4)
Sequence of SRPK1 (human) (Q96SB4 whole entry, looked up): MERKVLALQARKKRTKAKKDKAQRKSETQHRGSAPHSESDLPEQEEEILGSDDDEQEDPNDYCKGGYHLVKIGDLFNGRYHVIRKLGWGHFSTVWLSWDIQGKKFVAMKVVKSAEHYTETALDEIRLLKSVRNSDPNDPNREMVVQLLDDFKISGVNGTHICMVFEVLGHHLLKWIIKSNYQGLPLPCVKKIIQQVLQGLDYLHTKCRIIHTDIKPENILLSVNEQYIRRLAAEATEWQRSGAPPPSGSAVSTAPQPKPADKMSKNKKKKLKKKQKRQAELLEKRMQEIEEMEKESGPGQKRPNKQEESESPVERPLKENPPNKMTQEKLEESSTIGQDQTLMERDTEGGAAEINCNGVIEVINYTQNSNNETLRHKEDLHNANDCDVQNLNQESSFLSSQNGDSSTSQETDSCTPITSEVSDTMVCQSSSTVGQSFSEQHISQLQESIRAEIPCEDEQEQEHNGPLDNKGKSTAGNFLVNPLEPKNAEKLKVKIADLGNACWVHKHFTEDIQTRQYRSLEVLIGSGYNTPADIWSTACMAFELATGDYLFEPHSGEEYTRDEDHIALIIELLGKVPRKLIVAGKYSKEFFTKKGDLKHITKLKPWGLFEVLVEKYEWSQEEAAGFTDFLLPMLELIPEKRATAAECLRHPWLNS

[42] = biological target: ULK1 (human) (UniProt O75385)
Sequence of ULK1 (human) (O75385 whole entry, looked up): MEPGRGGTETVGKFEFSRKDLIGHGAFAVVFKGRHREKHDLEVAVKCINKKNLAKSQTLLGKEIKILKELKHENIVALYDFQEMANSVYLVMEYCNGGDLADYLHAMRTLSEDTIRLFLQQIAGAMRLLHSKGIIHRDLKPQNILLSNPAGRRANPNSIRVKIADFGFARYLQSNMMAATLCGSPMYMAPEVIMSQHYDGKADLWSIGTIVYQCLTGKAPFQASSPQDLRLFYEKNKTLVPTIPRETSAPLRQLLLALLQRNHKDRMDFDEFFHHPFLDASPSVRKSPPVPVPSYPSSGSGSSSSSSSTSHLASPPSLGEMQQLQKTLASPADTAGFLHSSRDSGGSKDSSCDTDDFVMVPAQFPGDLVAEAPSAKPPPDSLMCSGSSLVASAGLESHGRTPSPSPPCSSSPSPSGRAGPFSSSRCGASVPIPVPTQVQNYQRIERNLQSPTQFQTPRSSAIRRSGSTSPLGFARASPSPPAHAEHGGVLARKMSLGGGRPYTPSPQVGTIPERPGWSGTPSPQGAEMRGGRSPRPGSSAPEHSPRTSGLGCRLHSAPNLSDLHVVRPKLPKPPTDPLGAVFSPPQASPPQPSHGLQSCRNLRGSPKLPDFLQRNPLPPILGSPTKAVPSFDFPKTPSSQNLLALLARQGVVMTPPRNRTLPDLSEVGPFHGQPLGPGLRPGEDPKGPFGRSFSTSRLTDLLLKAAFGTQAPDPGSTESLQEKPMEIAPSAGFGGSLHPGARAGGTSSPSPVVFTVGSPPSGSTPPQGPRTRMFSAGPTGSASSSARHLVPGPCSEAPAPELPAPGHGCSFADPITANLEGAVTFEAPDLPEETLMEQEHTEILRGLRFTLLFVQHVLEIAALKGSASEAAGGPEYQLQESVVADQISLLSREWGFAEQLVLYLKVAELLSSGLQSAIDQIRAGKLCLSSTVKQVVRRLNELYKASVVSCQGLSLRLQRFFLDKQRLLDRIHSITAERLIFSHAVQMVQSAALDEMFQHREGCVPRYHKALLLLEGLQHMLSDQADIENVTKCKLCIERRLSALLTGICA

Sequence of TGFBR1 (human) (P36897 whole entry, looked up): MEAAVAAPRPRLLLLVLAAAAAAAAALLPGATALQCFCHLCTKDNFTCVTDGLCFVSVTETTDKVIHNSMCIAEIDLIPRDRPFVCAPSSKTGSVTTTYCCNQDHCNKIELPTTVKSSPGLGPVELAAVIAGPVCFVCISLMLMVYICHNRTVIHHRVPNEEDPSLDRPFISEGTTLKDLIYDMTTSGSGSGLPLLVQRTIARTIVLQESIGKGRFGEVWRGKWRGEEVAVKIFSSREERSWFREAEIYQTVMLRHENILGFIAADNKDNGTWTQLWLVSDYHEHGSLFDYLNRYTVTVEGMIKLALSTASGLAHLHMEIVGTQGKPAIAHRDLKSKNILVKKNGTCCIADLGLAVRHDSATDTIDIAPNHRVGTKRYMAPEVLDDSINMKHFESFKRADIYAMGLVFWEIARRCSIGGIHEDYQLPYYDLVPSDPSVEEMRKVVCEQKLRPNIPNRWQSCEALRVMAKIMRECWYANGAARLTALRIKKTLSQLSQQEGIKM

kinase still bound, per cent of control [1]: 24%
Structure (SMILES): CS(=O)(=O)Nc1ccc(-c2cc(/C=C3\SC(=N)NC3=O)c[nH]c2=O)cc1

kinase still bound, per cent of control [6]: 66%
kinase still bound, per cent of control [7]: 95%
kinase still bound, per cent of control [8]: 70%
kinase still bound, per cent of control [9]: 100%
kinase still bound, per cent of control [10]: 51%
kinase still bound, per cent of control [11]: 85%
kinase still bound, per cent of control [12]: 73%
kinase still bound, per cent of control [13]: 100%
kinase still bound, per cent of control [14]: 69%
kinase still bound, per cent of control [2]: 49%
kinase still bound, per cent of control [15]: 38%
kinase still bound, per cent of control [16]: 99%
kinase still bound, per cent of control [17]: 91%
kinase still bound, per cent of control [18]: 100%
kinase still bound, per cent of control [19]: 100%
kinase still bound, per cent of control [20]: 93%
kinase still bound, per cent of control [21]: 90%
kinase still bound, per cent of control [22]: 90%
kinase still bound, per cent of control [23]: 92%
kinase still bound, per cent of control [24]: 100%
kinase still bound, per cent of control [3]: 62%
kinase still bound, per cent of control [4]: 14%
kinase still bound, per cent of control [25]: 100%
kinase still bound, per cent of control [26]: 100%
kinase still bound, per cent of control [27]: 100%
kinase still bound, per cent of control [28]: 100%
kinase still bound, per cent of control [29]: 93%
kinase still bound, per cent of control [30]: 100%
kinase still bound, per cent of control [31]: 100%
kinase still bound, per cent of control [32]: 100%
kinase still bound, per cent of control [33]: 97%
kinase still bound, per cent of control [34]: 17%
kinase still bound, per cent of control [35]: 65%
kinase still bound, per cent of control [36]: 29%
kinase still bound, per cent of control [37]: 28%
kinase still bound, per cent of control [38]: 100%
kinase still bound, per cent of control [39]: 100%
kinase still bound, per cent of control [40]: 100%
kinase still bound, per cent of control [41]: 25%
kinase still bound, per cent of control [1]: 48%
kinase still bound, per cent of control [42]: 21%
kinase still bound, per cent of control [5]: 61%
Structure (SMILES): O=C1NC(=O)/C(=C/c2c[nH]c(=O)c(-c3ccc(N4CCNCC4)nc3)c2)S1

kinase still bound, per cent of control [41]: 25%
Structure (SMILES): N=C1NC(=O)/C(=C/c2ccc(-c3ccc(F)cc3O)o2)S1

kinase still bound, per cent of control [9]: 6.6%
kinase still bound, per cent of control [10]: 31%
kinase still bound, per cent of control [11]: 18%
kinase still bound, per cent of control [15]: 25%
kinase still bound, per cent of control [4]: 29%
kinase still bound, per cent of control [30]: 14%
kinase still bound, per cent of control [32]: 31%
kinase still bound, per cent of control [34]: 14%
kinase still bound, per cent of control [35]: 13%
kinase still bound, per cent of control [36]: 23%
kinase still bound, per cent of control [37]: 28%
kinase still bound, per cent of control [41]: 15%
kinase still bound, per cent of control [1]: 34%
Structure (SMILES): N=C1NC(=O)/C(=C/c2ccc(-c3cncc4ccccc34)o2)S1

More lines, now with the values behind:

Structure (SMILES): Nc1cccc(-c2cc(/C=C3\SC(=O)NC3=O)c[nH]c2=O)c1
kinase still bound, per cent of control [2]: 29%
kinase still bound, per cent of control [3]: 29%
kinase still bound, per cent of control [4]: 6.6%

Structure (SMILES): N=C1NC(=O)/C(=C/c2ccc(-c3ccc(C(N)=O)cc3O)o2)S1
kinase still bound, per cent of control [5]: 25%

Structure (SMILES): CN1C(=O)c2ccccc2N(C)c2nc(Nc3ccc(N4CCC(O)CC4)cc3)ncc21
kinase still bound, per cent of control [6]: 20%
kinase still bound, per cent of control [7]: 1.9%
kinase still bound, per cent of control [8]: 100%
kinase still bound, per cent of control [9]: 56%
kinase still bound, per cent of control [10]: 100%
kinase still bound, per cent of control [11]: 91%
kinase still bound, per cent of control [12]: 90%
kinase still bound, per cent of control [13]: 100%
kinase still bound, per cent of control [14]: 5.8%
kinase still bound, per cent of control [2]: 93%
kinase still bound, per cent of control [15]: 100%
kinase still bound, per cent of control [16]: 97%
kinase still bound, per cent of control [17]: 100%
kinase still bound, per cent of control [18]: 100%
kinase still bound, per cent of control [19]: 81%
kinase still bound, per cent of control [20]: 94%
kinase still bound, per cent of control [21]: 100%
kinase still bound, per cent of control [22]: 70%
kinase still bound, per cent of control [23]: 35%
kinase still bound, per cent of control [24]: 35%
kinase still bound, per cent of control [3]: 87%
kinase still bound, per cent of control [4]: 1.3%
kinase still bound, per cent of control [25]: 97%
kinase still bound, per cent of control [26]: 100%
kinase still bound, per cent of control [27]: 100%
kinase still bound, per cent of control [28]: 100%
kinase still bound, per cent of control [29]: 97%
kinase still bound, per cent of control [30]: 100%
kinase still bound, per cent of control [31]: 100%
kinase still bound, per cent of control [32]: 96%
kinase still bound, per cent of control [33]: 74%
kinase still bound, per cent of control [34]: 100%
kinase still bound, per cent of control [35]: 87%
kinase still bound, per cent of control [36]: 95%
kinase still bound, per cent of control [37]: 100%
kinase still bound, per cent of control [38]: 100%
kinase still bound, per cent of control [39]: 95%
kinase still bound, per cent of control [40]: 78%
kinase still bound, per cent of control [41]: 100%
kinase still bound, per cent of control [1]: 73%
kinase still bound, per cent of control [42]: 16%
kinase still bound, per cent of control [5]: 87%

Structure (SMILES): CS(=O)(=O)Nc1ccc(-c2cncc(/C=C3\SC(=N)NC3=O)c2)cc1
kinase still bound, per cent of control [21]: 28%
kinase still bound, per cent of control [33]: 24%
kinase still bound, per cent of control [41]: 11%
kinase still bound, per cent of control [1]: 16%

Structure (SMILES): N=C1NC(=O)/C(=C/c2ccc(-c3csc4ccccc34)o2)S1
kinase still bound, per cent of control [32]: 25%

Structure (SMILES): CS(=O)(=O)Nc1ccc(-c2ncc(/C=C3\SC(=N)NC3=O)s2)cc1
kinase still bound, per cent of control [21]: 3.6%
kinase still bound, per cent of control [42]: 33%

Structure (SMILES): CN1C(=O)[C@H]2CCC[C@H]2N(C2CCCC2)c2nc(Nc3ccc(C(N)=O)cc3)ncc21
kinase still bound, per cent of control [8]: 26%
kinase still bound, per cent of control [31]: 9%
kinase still bound, per cent of control [33]: 16%
kinase still bound, per cent of control [37]: 30%

Structure (SMILES): N=C1NC(=O)/C(=C/c2c[nH]c(=O)c(-c3ccc(N4CCNCC4)nc3)c2)S1
kinase still bound, per cent of control [42]: 33%

Structure (SMILES): O=C1NC(=S)S/C1=C\c1ccc(-c2cncc3ccccc23)o1
kinase still bound, per cent of control [8]: 34%
kinase still bound, per cent of control [9]: 28%
kinase still bound, per cent of control [11]: 34%
kinase still bound, per cent of control [15]: 23%
kinase still bound, per cent of control [20]: 28%
kinase still bound, per cent of control [21]: 28%
kinase still bound, per cent of control [25]: 21%
kinase still bound, per cent of control [30]: 20%
kinase still bound, per cent of control [32]: 24%
kinase still bound, per cent of control [34]: 29%
kinase still bound, per cent of control [35]: 11%

Structure (SMILES): CSC1=NC(=O)/C(=C/c2c[nH]c(=O)c(-c3ccc(NS(C)(=O)=O)cc3)c2)S1
kinase still bound, per cent of control [42]: 23%
